In patent publication US6921821B2, “Antagonists of melanin concentrating hormone receptor” (Abbott Laboratories, priority 2002, dated 2005):
Structures can show the parent of a compound that is named as a salt.

What follows are compounds tested against T1, murine MCHR (Mus musculus, UniProt Q8JZL2) (assay: Assay for release of intracellular calcium (FLIPR, Fluo-4), inhibition of MCH-induced Ca++ flux). Settings: test compound at a dose of 10 μM, HEK293 cells expressing the murine MCHR, read-out: inhibition of MCH (MCH induced Ca++ flux / fluorescence).
T1 construct: expressed in transfected cells; host or cells: HEK293
T1 sequence (Q8JZL2 whole entry): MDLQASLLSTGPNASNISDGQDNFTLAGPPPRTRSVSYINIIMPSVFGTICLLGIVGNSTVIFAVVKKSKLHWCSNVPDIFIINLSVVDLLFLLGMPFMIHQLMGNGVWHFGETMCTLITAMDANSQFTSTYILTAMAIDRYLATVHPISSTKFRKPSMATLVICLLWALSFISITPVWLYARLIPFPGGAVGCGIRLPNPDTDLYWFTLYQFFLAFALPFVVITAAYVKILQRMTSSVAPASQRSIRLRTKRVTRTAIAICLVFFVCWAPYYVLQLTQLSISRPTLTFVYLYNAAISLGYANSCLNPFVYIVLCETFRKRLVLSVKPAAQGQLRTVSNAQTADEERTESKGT
Type: cell-based
Outline: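 HEK293 cells expressing murine MCHR were loaded with Fluo-4AM (2.5 μM) and given compound (40 μM stock in 4% DMSO), with 3 min monitoring for agonism. They were then challenged with mouse MCH (12 nM as added) and FLIPR fluorescence followed 3 min more. % inhibition of MCH-induced Ca++ flux was calculated against baseline and no-compound signals.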

Inhibition at 10 µM, ≥ 50%:
CCOc1ccc(CN2CCC(Nc3cc(=O)oc4ccc(OC)cc34)CC2)cc1 [II-80, 4-[1-(4-Ethoxy-benzyl)-piperidin-4-ylamino]-6-methoxy-chromen-2-one trifluoroacetate]
O=C1CCCN1c1cc(Cl)cc2c(NC3CCN(Cc4ccc5c(c4)OCO5)CC3)cc(=O)oc12 [II-81]
O=c1cc(NC2CCN(Cc3ccc4c(c3)OCO4)CC2)c2cc(C(F)(F)F)ccc2o1 [II-82, 4-(1-Benzo[1,3]dioxol-5-ylmethyl-piperidin-4-ylamino)-6-trifluoromethyl-chromen-2-one]
COc1ccc2oc(=O)cc(NC3CCN(Cc4ccc(C(=O)NCCc5ccccn5)cc4)CC3)c2c1 [II-83, 4-[4-(6-Methoxy-2-oxo-2H-chromen-4-ylamino)-piperidin-1-ylmethyl]-N-(2-pyridin-2-yl-ethyl)-benzamide; Double TFA Salt]
COc1ccc2oc(=O)cc(NC3CCN(Cc4cc5ccccc5n4C)CC3)c2c1 [II-84, 6-Methoxy-4-[1-(1-methyl-1H-indol-2-ylmethyl)-piperidin-4-ylamino]-chromen-2-one, trifluoroacetate]
O=c1cc(NC2CCN(Cc3ccc4ccccc4c3)CC2)c2cc(F)cc(F)c2o1 [II-85, 6,8-Difluoro-4-(1-naphthalen-2-ylmethyl-piperidin-4-ylamino)-chromen-2-one]
COc1ccc2oc(=O)cc(NC3CCN(Cc4ccc(C(=O)NCCN5CCCC5)cc4)CC3)c2c1 [II-86, 4-[4-(6-Methoxy-2-oxo-2H-chromen-4-ylamino)-piperidin-1-ylmethyl]-N-(2-pyrrolidin-1-yl-ethyl)-benzamide; Double TFA Salt]
C=Cc1ccc2oc(=O)cc(NC3CCN(Cc4ccc5c(c4)CCO5)CC3)c2c1 [II-87, 4-[1-(2,3-Dihydro-benzofuran-5-ylmethyl)-piperidin-4-ylamino]-6-vinyl-chromen-2-one]
COc1ccc2oc(=O)cc(NC3CCN(Cc4ccc(O)c(F)c4)CC3)c2c1 [II-88, 4-[1-(3-Fluoro-4-hydroxy-benzyl)-piperidin-4-ylamino]-6-methoxy-chromen-2-one hydrochloride]
Cc1ccc2oc(=O)c(F)c(NC3CCN(Cc4ccc5c(c4)OCO5)CC3)c2c1 [II-89, 4-(1-Benzo{1,3}dioxol-5-ylmethyl-piperidin-4-ylamino)-3-fluoro-6-methylchromene-2-one]
COc1ccc2oc(=O)c(Cl)c(NC3CCN(Cc4ccc5c(c4)OCO5)CC3)c2c1 [II-90, 4-(1-Benzo[1,3]dioxol-5-ylmethyl-piperidin-4-ylamino)-3-chloro-6-methoxy-chromen-2-one]
COc1ccc2oc(=O)cc(NC3CCN(Cc4ccc(OCCCN(C)C)cc4)CC3)c2c1 [II-91]
COc1ccc2oc(=O)cc(NC3CCN(Cc4cccc(C)c4)CC3)c2c1 [II-92, 6-Methoxy-4-[1-(3-methyl-benzyl)-piperidin-4-ylamino]-chromen-2-one trifluoroacetate]
O=c1cc(NC2CCN(Cc3cc(Cl)c4occc4c3)CC2)c2cc(Cl)ccc2o1 [II-93, 6-Chloro-4-[1-(7-chloro-benzofuran-5-ylmethyl)-piperidin-4-ylamino]-chromen-2-one]
COc1ccc2oc(=O)cc(NC3CCN(Cc4ccc(C(=O)N5CCN(Cc6ccccc6)CC5)cc4)CC3)c2c1 [II-94, 4-{1-[4-(4-Benzyl-piperazine-1-carbonyl)-benzyl]-piperidin-4-ylamino}-6-methoxy-chromen-2-one; Double TFA Salt]
O=c1cc(NC2CCN(Cc3ccc4ocnc4c3)CC2)c2cc(Cl)ccc2o1 [II-95, 4-{1-Benzooxazol-5-ylmethyl-piperidin-4-ylamino)-6-chloro-chromen-2-one]
O=c1cc(NC2CCN(Cc3ccc4c(c3)OCO4)CC2)c2cc(OC(F)(F)F)ccc2o1 [II-96, 4-(1-Benzo[1,3]dioxol-5ylmethyl-piperidin-4-ylamino)-6-trifluoromethoxy-chromen-2-one]
CCOc1cccc(CN2CCC(Nc3cc(=O)oc4ccc(OC)cc34)CC2)c1 [II-97, 4-[1-(3-Ethoxy-benzyl)-piperidin-4-ylamino]-6-methoxy-chromen-2-one trifluoroacetate]
Cc1cc(C)c2oc(=O)cc(NC3CCN(Cc4ccc5c(c4)OCO5)CC3)c2c1 [II-98, 4-(1-Benzo[1,3]dioxol-5-ylmethyl-piperidin-4-ylamino)-6,8-dimethyl-chromen-2-one]
NC(=O)c1cccc(CN2CCC(Nc3cc(=O)oc4ccc(Cl)cc34)CC2)c1 [II-99, 3-[4-(6-Chloro-2-oxo-2H-chromen-4-ylamino)-piperidin-1-ylmethyl]-benzamide]
C=Cc1ccc2oc(=O)cc(NC3CCN(Cc4ccc5ocnc5c4)CC3)c2c1 [II-100, 4-(1-Benzooxazol-5-ylmethyl-piperidin-4-ylamino)-6-vinyl-chromen-2-one]
COc1ccc2oc(=O)cc(NC3CCN(Cc4cccc5sccc45)CC3)c2c1 [II-101, 4-{[1-(1-benzothien-4-ylmethyl)piperidin-4-yl]amino}-6-methoxy-2H-chromen-2-one]
COc1ccc2oc(=O)cc(NC3CCN(Cc4ccccc4)CC3)c2c1 [II-102, 4-(1-Benzyl-piperidin-4-ylamino)-6-methoxy-chromen-2-one trifluoroacetate]
CCc1ccc2oc(=O)cc(NC3CCN(Cc4ccc(C)c(C)c4)CC3)c2c1 [II-103, 4-{1-(3,4-Dimethyl-benzyl)-piperidin-4-ylamino}-6-ethyl-chromen-2-one]
COc1ccc2oc(=O)cc(NC3CCN(Cc4ccc(C)c(F)c4)CC3)c2c1 [II-105, 4-[1-(3-Fluoro-4-methyl-benzyl)-piperidin-4-ylamino]-6-methoxy-chromen-2-one trifluoroacetate]
COc1ccc2oc(=O)cc(NC3CCN(Cc4ccc5c(ccn5C)c4)CC3)c2c1 [II-111, 6-Methoxy-4-[N-methylindole-5-ylmethyl-piperidin-4-ylamino]chromen-2-one]
COc1ccc2oc(=O)cc(NC3CCN(Cc4ccc5ncccc5c4)CC3)c2c1 [II-112, 6-Methoxy-4-(1-quinolin-6-ylmethyl-piperidin-4-ylamino)-chromen-2-one]
CC(c1ccc(O)c(F)c1)N1CCC(Nc2cc(=O)oc3ccc(Cl)cc23)CC1 (centres unmarked) [II-113, 6-Chloro-4-{1-[1-(3-fluoro-4-hydroxy-phenyl)-ethyl]-piperidin-4-ylamino}-chromen-2-one]
N#Cc1ccc2oc(=O)cc(NC3CCN(Cc4ccc5occc5c4)CC3)c2c1 [II-114, 4-(1-Benzofuran-5-ylmethyl-piperidin-4-ylamino)-2-oxo-2H-chromene-6-carbonitrile]
COc1ccc2oc(=O)cc(NC3CCN(Cc4ccc(OCCCN5CCCCC5)c(Cl)c4)CC3)c2c1 [II-115, 4-{1-[3-Chloro-4-(3-piperidin-1-yl-propoxy)-benzyl]-piperidin-4-ylamino}-6-methoxy-chromen-2-one; Double TFA Salt]
O=c1cc(NC2CCN(Cc3ccc4c(c3)OCO4)CC2)c2cc(Cl)c(Cl)cc2o1 [II-117, (4-Benzo[1,3]dioxol-5-ylmethyl-piperidin-4-ylamino)-6,7-dichloro-chromen-2-one]
C[C@@H](c1ccc2ccccc2c1)N1CCC(Nc2cc(=O)oc3ccc(Cl)cc23)CC1 [II-120, (S)-6-Chloro-4-[1-(1-naphthalen-2-yl-ethyl)-piperdin-4-ylamino]-chromen-2-one]
O=c1cc(NC2CCN(Cc3ccc4c(c3)OCO4)CC2)c2cc(OC(F)F)ccc2o1 [II-125, 4-(1-Benzo[1,3]dioxol-5-ylmethyl-piperidin-4-ylamino)-6-difluoromethoxy-chromen-2-one]
COc1ccc2oc(=O)cc(NC3CCN(C/C=C/c4ccccc4)CC3)c2c1 [III-1, 6-Methoxy-4-[1-(3-phenyl-allyl)-piperidin-4-ylamino] chromen-2-one]
O=c1cc(NC2CCN(C/C=C/c3ccccc3Cl)CC2)c2cc(Cl)ccc2o1 [III-2, 6-Chloro-4-{1-[3-(2-chloro-phenyl)-allyl]-piperidin-4-ylamino}-chromen-2-one]
O=c1cc(NC2CCN(C/C=C/c3ccccc3)CC2)c2cc(Cl)ccc2o1 [III-3, 6-Chloro-4-[1-(3-phenyl-allyl)-piperidin-4-ylamino]-chromen-2-one]
O=c1cc(NC2CCN(C/C=C/c3ccccc3)CC2)c2cc(Br)ccc2o1 [III-5, 6-Bromo-4-[1-(3-phenyl-allyl)-piperidine-4-ylamino]-chromen-2-one]
Cc1ccc2oc(=O)cc(NC3CCN(C/C=C/c4ccccc4)CC3)c2c1 [III-6, 6-Methyl-4-[1-(3-phenyl-allyl)-piperidin-4-ylamino]-chromen-2-one]
O=c1cc(NC2CCN(C/C=C/c3cccc(Cl)c3)CC2)c2ccccc2o1 [III-9, 4-{1-[3-(3-Chloro-phenyl)-allyl]-piperidin-4-ylamino}-chromen-2-one]
Cc1ccc2oc(=O)cc(NC3CCN(C/C=C/c4ccccc4[N+](=O)[O-])CC3)c2c1 [III-12, 6-Methyl-4-{1-[3-(2-nitro-phenyl)-allyl]-piperidin-4-ylamino}-chromen-2-one]
O=c1cc(NC2CCN(C/C=C/c3ccccc3F)CC2)c2ccccc2o1 [III-14, 4-{1-[3-(2-Fluoro-phenyl)-allyl]-piperidin-4-ylamino}-chromen-2-one]
